Results as given in patent EP4186500A1, “MEK INHIBITORS FOR THE PREVENTION AND TREATMENT OF LONG COVID SYNDROME” (Atriva Therapeutics GmbH, priority 2021, dated 2023).
Read-outs that look alike come from different tables or passages of the source.

Key:
[1] = system: SARS-CoV-2 SA variant B.1351; assay type: cell-based, Severe acute respiratory syndrome coronavirus; details: MOI 0.1, 1 and 10, 50, 75 and 100µM, 24 hours
[2] = system: SARS-CoV-2 (FI); assay type: cell-based, Severe acute respiratory syndrome coronavirus; details: ATR-002 100 µM

For `O=C(O)c1ccc(F)c(F)c1Nc1ccc(I)cc1Cl` [ATR-002, 2-(2-chloro-4-iodophenylamino)-N-3,4-difluoro benzoic acid], the virus yield ([1]; Calu-3 cells) was “reduction of virus yield”, the virus yield ([1]; Vero cells) was “reduction of virus yield” and the “production of progeny viral particles” value ([2]; A549-ACE2/TMPRSS2 cells, MOI of 0.001) was “reduced the production of progeny viral particles”. The “production of progeny viral particles” value ([2]; A549-ACE2/TMPRSS2 cells, MOI: 0.01) was “did not affect the production of progeny viral particles” and the “production of progeny viral particles” value ([2]; Calu-3 cells, MOI of 0.001) was “reduced the production of progeny viral particles”.
